Values quoted from earlier work as cited in patent US8431724B2, “Iejimalid analoga and uses thereof” (Studiengesellschaft Kohle mbH, priority 2007, dated 2013).

Assays:
P388 leukemia = settings: Kobayashi's report
[1] = system: panel of 60 standard human cancer cell lines; settings: NCI dataset 2005

| Molecule | in vivo activity against P388 leukemia (P388 leukemia) | GI50 [1] | TGI [1] |
| --- | --- | --- | --- |
| CO[C@@H]1/C=C(C)/C=C/[C@@H](C)/C=C/C(=O)O[C@H](/C(C)=C/C=C(\C)CNC(=O)[C@H](COS(=O)(=O)[O-])NC=O)[C@@H](C)/C=C/C=C/[C@@H](OC)CC/C=C(C)\C=C\C1.[Na+] [compound 3, Iejimalide C] | potent in vivo activity |  |  |
| Iejimalide A |  | low nanomolar range | low nanomolar range |
| CO[C@@H]1/C=C(C)/C=C/[C@@H](C)/C=C(\C)C(=O)O[C@H](/C(C)=C/C=C(\C)CNC(=O)[C@H](COS(=O)(=O)[O-])NC=O)[C@@H](C)/C=C/C=C/[C@@H](OC)CC/C=C(C)\C=C\C1.[Na+] [compound 4, Iejimalide D] | potent in vivo activity |  |  |
